Reference: patent US10189873B2, “Compositions and methods for inhibiting “stimulator of interferon gene”-dependent signalling” (ADURO BIOTECH, INC., priority 2013, dated 2019)

Target: T1, human STING (Homo sapiens, UniProt Q86WV6, G230A/H232R/R293Q/R71H)
T1 construct: THP1-Blue™ ISG cells (a human monocyte cell line transfected with an IRF-inducible secreted embryonic alkaline phosphatase reporter gene); host or cells: THP1-Blue ISG cells (human monocyte cell line)
Assay: Inhibition of ML RR-CDA-mediated induction of type I IFN in THP1-Blue ISG reporter cells (QUANTI-Blue, A655)
Assay type: cell-based
Source text: To evaluate if the antagonist 2′-O-propargyl-cyclic-[A(2′,5′)pA(3′,5′)p] (ML-propargyl-CDA) can inhibit STING-dependent induction of type I interferon induction by Rp, Rp dithio cyclic [A(2′,5′)pA(3′,5′)p] (ML RR-CDA) in human cells, 4×10^5 THP1-Blue™ ISG cells (a human monocyte cell line transfected with an IRF-inducible secreted embryonic alkaline phosphatase reporter gene (Invivogen) which express alkaline phosphatase under the control of a promoter comprised of five IFN-stimulated response elements) were incubated with 50 μM of Rp, Rp dithio cyclic [A(2′,5′)pA(3′,5′)p] (ML RR-CDA), 10 μM or 50 μM of the antagonist 2′-O-propargyl-cyclic-[A(2′,5′)pA(3′,5′)p] (ML-propargyl-CDA), both 50 μM Rp, Rp dithio cyclic [A(2′,5′)pA(3′,5′)p] (ML RR-CDA) and 10 μM or 50 μM 2′-O-propargyl-cyclic-[A(2′,5′)pA(3′,5′)p] (ML-propargyl-CDA), or 50 μM Rp, Rp dithio cyclic [A(2′,5′)pA(3′,5′)p] (ML RR-CDA) after a 30 min pre-incubation with 10 μM 2′-O-propargyl-cyclic-[A(2′,5′)pA(3′,5′)p] (ML-propargyl-CDA). After 30 minutes, cells were washed and plated in 96-well dish in RPMI media containing 10% FBS, and incubated at 37° C. with 5% CO2. Cell culture supernatants from each sample were collected after 16 hr incubation, and 20 μL of the cell culture supernatants was added to 180 μL QUANTI-Blue reagent (Invivogen) and incubated for 5 minutes to evaluate type I interferon protein levels. Readings at Absorbance 655 nm were measured with a Versa Max kinetic spectrophotometer ([…]).

T1 sequence (Q86WV6 whole entry R71H/G230A/H232R/R293Q): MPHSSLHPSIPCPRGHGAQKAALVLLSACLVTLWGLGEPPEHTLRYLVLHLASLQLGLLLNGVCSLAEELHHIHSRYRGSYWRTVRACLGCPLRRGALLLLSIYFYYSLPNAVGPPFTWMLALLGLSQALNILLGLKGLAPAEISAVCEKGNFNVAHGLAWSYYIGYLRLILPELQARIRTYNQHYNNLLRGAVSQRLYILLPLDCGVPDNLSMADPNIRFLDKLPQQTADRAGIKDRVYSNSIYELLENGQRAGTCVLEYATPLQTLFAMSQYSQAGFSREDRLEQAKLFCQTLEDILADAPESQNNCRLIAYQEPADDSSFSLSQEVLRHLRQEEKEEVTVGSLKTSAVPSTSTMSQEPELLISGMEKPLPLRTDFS

- inhibition of induction of type I IFN by ML RR-CDA (THP1-Blue ISG cells, 10 μM or 50 μM antagonist added simultaneously with 50 μM ML RR-CDA, FIG. 7A): significantly inhibited
- inhibition of induction of type I interferon by ML RR-CDA (THP1-Blue ISG cells, 30 min pre-incubation with 10 μM antagonist, then 50 μM ML RR-CDA, FIG. 7B): inhibits
- functional character at human STING (concluded from reduction of ML RR-CDA-induced type I IFN production in THP1-Blue ISG cells): antagonist of human STING
SMILES: C#CCO[C@@H]1[C@@H]2OP(=O)(O)OC[C@H]3O[C@@H](n4cnc5c(N)ncnc54)[C@H](OP(=O)(O)OC[C@H]2O[C@H]1n1cnc2c(N)ncnc21)[C@@H]3O [ML-propargyl-CDA, 2′-O-propargyl-cyclic-A(2′,5′)pA(3′,5′)p]
